Tests used:
[1] = system: male Lewis rats; details: intrapleural with carrageenan, 4 hours
Procedure: Acute Anti-Inflammatory Activity in the 4HR Carrageenan Pleurisy Assay in Rats
The Acute Local Carrageenan Pleuritis Assay in Rats is an in vivo model to determine local acute anti-inflammatory activity of compounds based on inhibition of edema formation and neutrophil mobilization into the pleural cavity. In this assay, male Lewis rats of approximately 200 gms were utilized. A carrageenan solution (400 μg/ml) was prepared in water. The experimental compounds were mixed into the carrageenan solution. The carrageenan +/− compounds was injected intrapleurally 0.25 cc/rat. The rats were sacrificed four hours later. The pleural cavity was opened and measured and the exudate extracted. The pleural cavity was washed with 5 cc EDTA solution to capture pleural cells. The total WBCs in the wash were counted and recording. Next the compound inhibition of exudate volume and inflammatory cell influx wash determined. Every experiment included a positive (prednisolone) and negative control group.

[2] = system: Pyricularia oryzae; type: cell-based; details: Pyricularia oryzae (Rice); 18° C., 7 days; growth reduced by at least 90% vs control, OD 405 nm
[3] = system: Rhizoctonia solani; assay: Anti-Fungal Activity in Plant Relevant Molds In Vitro Microtitre Test; type: cell-based; details: Rhizoctonia solani (Rice Sheath); 18° C., 7 days; growth reduced by at least 90% vs control, OD 405 nm
Procedure: (§1) Compounds III, IV and V were prepared and were subjected to Anti-Fungal Activity in Plant Relevant Molds In Vitro Microtitre Tests.
(§2) A stock solution of each compound was prepared in DMSO at a concentration of 10,000 ppm a.i. Further dilutions were prepared with water. The test was conducted at the following concentrations: 125, 31, 8, […], 0.5 and 0.125 ppm a.i. Spore suspensions of the fungi were prepared. The test was conducted in microtiter plates and for each fungus and each concentration, 3 wells were prepared. Incubation of the inoculated plates was carried out at 18° C. for 7 days. After this time, the optical density of the mycelium developed in each well was measured at 405 nm.
(§3) The data produced allowed an assessment of the IC 90 value (the concentration at which the fungal growth was reduced by at least 90% compared to the control).

[4] = system: Fusarium culmorum; assay: as above; type: cell-based; details: Fusarium culmorum (Wheat Head); 18° C., 7 days; growth reduced by at least 90% vs control, OD 405 nm
Procedure: as §1, §2, §3

[5] = system: Pyrenophora teres; assay: as above; type: cell-based; details: Pyrenophora teres (Barley); 18° C., 7 days; growth reduced by at least 90% vs control, OD 405 nm
Procedure: as §1, §2, §3

[6] = system: Alternaria solani; assay: as above; type: cell-based; details: Alternaria solani (Potato); 18° C., 7 days; growth reduced by at least 90% vs control, OD 405 nm
Procedure: as §1, §2, §3

[7] = system: Cochliobolus mijabeanus; assay: as above; type: cell-based; details: Cochliobolus mijabeanus (Corn); 18° C., 7 days; growth reduced by at least 90% vs control, OD 405 nm
Procedure: as §1, §2, §3

[8] = system: Septonia tritici; assay: as above; type: cell-based; details: Septonia tritici (Wheat Leaf); 18° C., 7 days; growth reduced by at least 90% vs control, OD 405 nm
Procedure: as §1, §2, §3

[9] = system: Colletotrichum lagenarium; assay: as above; type: cell-based; details: Colletotrichum lagenarium (Mellons); 18° C., 7 days; growth reduced by at least 90% vs control, OD 405 nm
Procedure: as §1, §2, §3

[10] = system: Botrytis cinerea; assay: as above; type: cell-based; details: Botrytis cinerea (Vegetable); 18° C., 7 days; growth reduced by at least 90% vs control, OD 405 nm
Procedure: as §1, §2, §3

[11] = system: Phytophthora infestans; type: cell-based; details: Phytophthora infestans (Tomato); 18° C., 7 days; growth reduced by at least 90% vs control, OD 405 nm

SMILES | Acute Anti-inflammatory Activity in Rats ED50 [1] | IC90 [2] | IC90 [3] | IC90 [4] | IC90 [5] | IC90 [6] | IC90 [7] | IC90 [8] | IC90 [9] | IC90 [10] | IC90 [11]
CC(C)Cc1ccc(-c2csc(C=Cc3ccc(N4CCCC4)cc3)[n+]2C)cc1.[I-] [4-(4-isobutylphenyl)-3-methyl-2-[2-(4-pyrrolidin-1-yl-phenyl)vinyl]-thiazolium iodide] | 0.0004 mg/rat | – | – | – | – | – | – | – | – | – | –
Cc1cc(-c2csc(/C=C/c3ccc(N(C)C)cc3)[n+]2C)c(C)c(C)c1C.[I-] [Formula V, E-2-(N,N′-dimethylaminostyryl)-3-methyl-4-(2,3,4,5-tetramethylphenyl)thiazolium iodide] | – | 8 ppm | 8 ppm | 31 ppm | 8 ppm | 8 ppm | 8 ppm | 2 ppm | 8 ppm | 2 ppm | 2 ppm
CCN(CC)c1ccc(C=Cc2scc(-c3ccc(CC(C)C)cc3)[n+]2C)cc1.[I-] [2-[2-(4-diethylamino-phenyl)vinyl]-4-(4-isobutyl-phenyl)-3-methyl-thiazolium iodide] | 0.0003 mg/rat | – | – | – | – | – | – | – | – | – | –
Cc1scc(-c2ccc(C3CCCCC3)cc2)[n+]1C.[I-] [2,3-dimethyl-4(p-cyclohexylphenyl) thiazolium iodide] | 0.02 mg/rat | – | – | – | – | – | – | – | – | – | –
CCOc1ccc(-c2csc(C=Cc3ccc(N(CC)CC)cc3)[n+]2C)cc1.[I-] [2-(4′-diethylaminostyryl)-4-(4″-ethoxyphenyl)-3-methyl-thiazolium iodide] | 0.001 mg/rat | – | – | – | – | – | – | – | – | – | –
CC[n+]1c(-c2ccc(-c3ccccc3)cc2)csc1C=Cc1ccc(N2CCCC2)cc1.[I-] [4-(4-biphenyl)-3-ethyl-2-[(4-pyrrolidino)styryl]thiazolium iodide] | 0.001 mg/rat | – | – | – | – | – | – | – | – | – | –
CC(C)c1ccc(C(C)C)c(-c2csc(/C=C/c3ccc(N(C)C)cc3)[n+]2C)c1.[I-] [Formula IV, E-2-(N,N′-dimethylaminostyryl)-3-methyl-4-(2,5-diisopropylphenyl)thiazolium iodide] | 0.0002 mg/rat | 8 ppm | 8 ppm | 125 ppm | 8 ppm | 8 ppm | 8 ppm | 2 ppm | 8 ppm | 2 ppm | 8 ppm
CCN(CC)c1ccc(/C=C/c2scc(-c3ccc(OC)cc3)[n+]2C)cc1.[I-] [Formula III] | – | 8 ppm | 8 ppm | 31 ppm | 8 ppm | 31 ppm | 2 ppm | 2 ppm | 8 ppm | 2 ppm | 2 ppm
